Measured values from US20060252732A1, “Blood vessel-growth promoter” (priority 2003, published 2006).

What was measured:
[1] = test system: human umbilical vein endothelial cells (HUVEC); experiment: Proliferation test on human umbilical vein endothelial cells (HUVEC); assay type: cell-based
Description: Proliferation Test on Human Umbilical Vein Endothelial Cells (HUVEC) […] After the culture broth was filtered by suction, to a minimum essential medium (MEM) broth containing 1% FBS, acetylsalicylic acid was added at a concentration (0, 0.055, 0.55, 5.5, 55, 555 μM, respectively) and each mixture was cultivated. After 0, 24 and 48 hours the number of alive cells was counted. As a positive control vascular endothelial growth factor (VEGF; Vascular Endothelial Growth Factor-A) (20 ng/mL) was used. In this measurement, Cell Counting Kit-8 (Dojin Chemical Co.) was used.

[2] = test system: human vascular endothelial cells (HUVEC) and fibroblast; experiment: Measurement of neo-vascularization ability (tube formation, CD31 staining, Angiogenesis Kit KZ-1000); assay type: cell-based
Description: Measurement of Neo-Vascularization Ability
The tube formation by a mixture-system of human vascular endothelial cells (HUVEC) and fibroblast was investigated by CD31 staining kit (Kurabo Ind.) to be visualized, and be made score by an analytical soft (NIH Image). A broth containing acetylsalicylic (0.5, 5.5, 55 μM; changed every three days) was added to neo-vascularization kit (Angiogenesis Kit KZ-1000; Kurabo Ind.) prepared by mixing human vascular endothelial cells and fibroblast, and the resulting broth was cultivated for 11 days. Then immuno histochemical study was performed by using CD31 staining kit, and the color photo was taken. The picture was analyzed using NIH Image and the amount of the formed tubes was scored as an area to evaluate. As a positive control, vascula endothelial growth factor (VEGF; 10 ng/mL) and as a negative control sramine (100 μM) were used, respectively.

Wister female rats = experiment: Neo-vascularization test using rats (subcutaneous urethane sponge, carmine dye); assay type: in vivo, rat
Description: Neo-Vascularization Test Using Rats
Wister female rats (7 weeks old; n=6) were anesthetized with ether, and a urethane sponge (diameter: 8 mm) previously permeating a drug was inserted in subcutaneous tissue of right shoulder. As a test drug, acetylsalicylic acid (2 mg) and as a positive control retinoid (0.5 mg) were administered, respectively. Four days later after insertion of the sponge, 5% gelatin solution containing 5% carmine dye kept at 37° C. was administered under ether anesthesia in tail vein of the rat. After injection, the rats in suspended animation were left at 4° C. for 2 hours, and the gelatin solution containing carmine dye distributed in blood vessel was solidified. After butcher of the rats, the sponge with granulation tissue was extracted and the dye therein was extracted. Absorbancy at 530 nm was measured to calculate the amount of the carmine dye.

In the case of `CC(=O)Oc1ccccc1C(=O)O` [Acetylsalicylic acid, acetylsalicylic acid], the “Change of the number of HUVEC, Relative absorvancy” value (“Change … Relative absorvancy” below) ([1]; 0.055 μM drug, after 0 hour) is reported as 1.102, the “Change … Relative absorvancy” value ([1]; 0.055 μM drug, after 24 hours) is reported as 1.252 and the “Change … Relative absorvancy” value ([1]; 0.055 μM drug, after 48 hours) is reported as 1.303. The “Change … Relative absorvancy” value ([1]; 0.55 μM drug, after 0 hour) was 1.144, the “Change … Relative absorvancy” value ([1]; 0.55 μM drug, after 24 hours) was 2.001 and the “Change … Relative absorvancy” value ([1]; 0.55 μM drug, after 48 hours) was 1.709. For the same compound, the “Change … Relative absorvancy” value ([1]; 5.5 μM drug, after 0 hour) was 1.084, the “Change … Relative absorvancy” value ([1]; 5.5 μM drug, after 24 hours) was 1.811 and the “Change … Relative absorvancy” value ([1]; 5.5 μM drug, after 48 hours) was 1.575. The “Change … Relative absorvancy” value ([1]; 55 μM drug, after 0 hour) was 1.107, the “Change … Relative absorvancy” value ([1]; 55 μM drug, after 24 hours) was 1.754 and the “Change … Relative absorvancy” value ([1]; 55 μM drug, after 48 hours) was 1.475. The “Change … Relative absorvancy” value ([1]; 555 μM drug, after 0 hour) was 1.017, the “Change … Relative absorvancy” value ([1]; 555 μM drug, after 24 hours) was 1.044 and the “Change … Relative absorvancy” value ([1]; 555 μM drug, after 48 hours) was 0.699. For the same compound, the “Proliferation promoting activity of HUVEC” value ([1]; added in more than 0.055 μM) was “proliferation promoting activity of HUVEC was confirmed”, the “Proliferation promoting effect on HUVEC” value ([1]; added in more than 555 μM) was “proliferation promoting effect was not recognized or was even depressed” and the Tube-formation promoting activity [2] was “showed tube-formation promoting activity”. The “Neo-vascularization ability, Relative area After 11 days” value ([2]; 5.5 μM) was 1.17, the “Neo-vascularization ability, Relative area After 11 days” value ([2]; 55 μM) was 1.08 and the “Neo-vascularization promoting activity in vivo” value (Wister female rats) was “neo-vascularization promoting activity was shown”. The “Amount of carmine dye” value (Wister female rats; 2 mg in sponge, subcutaneous, 4 days after insertion) was 16.0 ± 4.2 µg/mL.

`Cc1ccc(C(=O)Nc2ccc(S(=O)(=O)O)c3cc(S(=O)(=O)O)cc(S(=O)(=O)O)c23)cc1NC(=O)c1cccc(NC(=O)Nc2cccc(C(=O)Nc3cc(C(=O)Nc4ccc(S(=O)(=O)O)c5cc(S(=O)(=O)O)cc(S(=O)(=O)O)c45)ccc3C)c2)c1` [Sramine, sramine] was tested, and the “Neo-vascularization ability, Relative area After 11 days” value ([2]; 100 μM (negative control)) was 0.04.

In the case of VEGF, the “Change … Relative absorvancy” value ([1]; 20 ng/mL (positive control), after 0 hour) is reported as 1.003, the “Change … Relative absorvancy” value ([1]; 20 ng/mL (positive control), after 24 hours) is reported as 2.041 and the “Change … Relative absorvancy” value ([1]; 20 ng/mL (positive control), after 48 hours) is reported as 1.889. The “Neo-vascularization ability, Relative area After 11 days” value ([2]; 10 ng/mL (positive control)) was 1.71.
